Laboratory results as given in US7465708B2, “Branched cationic copolymers and methods for antimicrobial use” (priority 2002, dated 2008).
Where two headings read alike, the source gives them in different places. Positions of bridges follow the written chain, without caps; N, C: chain ends. Chains are numbered I, II in the order given. No end group written: not given here.

Columns and labels:
[1] = test system: MDA-MB-435 cells; assay: In vitro toxicity: reduction in cell number after incubation with polymers; format: cell-based
Text: In vitro toxicity of these polymers was then examined on a malignant cell line (MDA-MB-435).

[2] = test system: mice; assay: Acute in vivo toxicity after IV injection; settings: for side effects of surviving mice (scale): one symbol per mouse; for histology of major organs: mice who died from polymers at higher dosages; for in vivo toxicity (in words): administered intravenously
Text: One of the major limitations of cationic peptides is their potenitial toxicity when administered systemically. As a result, we tested the acute toxicity of these polymers after injecting them IV. […] Conversely, linear polymers that had minimal to moderate antibacterial properties had the greatest in vivo toxicity. […] Even if one arginine adjacent to the histidine residue replaces the amino terminal lysine in the HK polymer (e.g., HK-R), the polymer was still very toxic when administered intravenously. The in vivo toxicity of linear HK polymers from most to least is as follows: HR>HK-R>>HK. […] There were parallels between in vitro and in vivo toxicity studies (Tables 2 and 3). […] The data is consistent with linear polymers interacting and inhibiting ionic channels of the cardiovascular system (similar to neurotoxins). Intravenous injection of linear polymers with arginine or lysines adjacent (or near) to histidines should be avoided.

[3] = test system: gram negative bacteria E. coli transformed with a kanamycin-resistant plasmid; assay: In vitro bacteria inhibition (MIC, turbidity O.D. 600 nm in LB broth); format: cell-based
Description: Bacteria; A gram negative bacteria E. coli transformed with a kanamycin-resistant plasmid was used in these experiments and grown in LB media (Biofluids, Rockville, Md.).
For in vitro studies, several polymers were tested for their ability to inhibit gram negative bacteria. […] The histidine and lysine ratio and their sequence order have an important role in the-polymers' effects. […] Since it is likely that H^3KN4b has the greatest ability to chelate key transitional elements, chelation of key elements in LB media, separate from the polymer's role of binding to the bacteria membrane, is unlikely to have a major role in the inhibition of bacteria. • 3) The sequence order of lysine and histidine in the branched polymer has a major role in the inhibition of bacteria. Altering these sequences affects the antibacterial activity of […]. Sufficient cationic amino acids are critical for binding whereas the exact function of histidine is unclear. Data supports that cationic amino acids need to be evenly distributed in branches, particularly at N-terminal ends. Too many cationic amino acids in the polymer, however, reduce antibacterial activity. • 4) Histidine may have a role in the interruption of iron transport systems and/or it may enhance the hydrophobic interactions of the polymer with the bacteria membrane.

[4] = 50 μg/ml, 6 h incubation in DMEM/10% serum, counted 24 h later vs untreated cells
[5] = 150 μg/ml, 6 h incubation in DMEM/10% serum, counted 24 h later vs untreated cells
[6] = 100 μl/ml, 6 h incubation in DMEM/10% serum, counted 24 h later vs untreated cells

Substance	number of mice who survive treatment / number of mice in treatment group ([2]; 75 μg IV)	number of mice who survive treatment / number of mice in treatment group ([2]; 150 μg IV)	number of mice who survive treatment / number of mice in treatment group ([2]; 300 μg IV)	number of mice who survive treatment / number of mice in treatment group ([2]; 600 μg IV)	side effects of surviving mice (scale) ([2]; 150 μg IV)	histology of major organs [2]	also measured
I: KHHHKHHHKHHHKHHHKKKK / II: KHHHKHHHKHHHKHHHK / III: KHHHKHHHKHHHKHHHK / IV: KHHHKHHHKHHHKHHHK (amide I:18-IV:C, I:19-III:C, I:20-II:C) [H^3K4b, [K-H-H-H-K-H-H-H-K-H-H-H-K-H-H-H-K]4K3]	2/2	2/2	2/2	2/2	–	–	Reduction In Cell Number [1, 4]: 0%; Reduction In Cell Number [1, 5]: 0%; Reduction In Cell Number [1, 6]: 0%; in vitro toxicity (in words, measured by cell number) ([1]; MDA-MB-435 cells): no observed toxicity; toxicity after repeated dosing (in words) ([2]; three 600 μg dosages, each separated by 4 h): no evidence of toxicity
KHKHKHKHKGKHKHKHKHK [linear HK, [K-H-K-H-K-H-K-H-K-G-K-H-K-H-K-H-K-H-K]]	2/2	2/2	2/2	0/2	++, +	no evidence of pathology	Reduction In Cell Number [1]: 68%; in vitro toxicity (in words, measured by cell number) [1]: significantly more toxic; side effects of surviving mice (scale) ([2]; 300 μg IV): +++, +++
I: KHKHHKHHKHHKHHKHHKHKKKK / II: KHKHHKHHKHHKHHKHHKHK / III: KHKHHKHHKHHKHHKHHKHK / IV: KHKHHKHHKHHKHHKHHKHK (amide I:21-IV:C, I:22-III:C, I:23-II:C) [H^2K4b, [KHKHHKHHKHHKHHKHHKHK]4K3]	2/2	2/2	2/2	2/2	–	–	Reduction In Cell Number [1, 4]: 5%; Reduction In Cell Number [1, 5]: 22%; Reduction In Cell Number [1, 6]: 12%
I: KHHHNHHHKHHHKHHHKKKK / II: KHHHNHHHKHHHKHHHK / III: KHHHNHHHKHHHKHHHK / IV: KHHHNHHHKHHHKHHHK (amide I:18-IV:C, I:19-III:C, I:20-II:C) [H^3KN4b, [K-H-H-H-N-H-H-H-K-H-H-H-K-H-H-H-K]4K3]	–	–	–	–	–	–	antimicrobial activity (in words) [3]: moderate antimicrobial activity
I: KHKHHKHHKHHKHHKHHKHKK / II: KHKHHKHHKHHKHHKHHKHK (amide I:21-II:C) [H^2K2b, [K-H-H-K-H-H-K-H-H-K-H-H-K-H-H-K-H-K]2K]	–	–	–	–	–	–	antimicrobial activity (in words) [3]: only moderate reduction on bacteria growth
RHRHRHRHRGRHRHRHRHR [linear RH, [R-H-R-H-R-H-R-H-R-G-R-H-R-H-R-H-R-H-R]]	2/2	2/2	0/2	0/2	+++, +	no evidence of pathology	side effects of surviving mice (scale) ([2]; 75 μg IV): + (moderate reduction in activity in for less than 1 min); in vivo toxicity (in words) [2]: most toxic of the linear polymers
RHKHKHKHKGKHKHKHKHK [HK-R, [R-H-K-H-K-H-K-H-K-G-K-H-K-H-K-H-K-H-K]]	2/2	2/2	0/2	0/2	+, +	no evidence of pathology	in vivo toxicity (in words) [2]: very toxic
I: KHKHKHKHKGKHKHKHKHKKKK / II: KHKHKHKHKGKHKHKHKHK / III: KHKHKHKHKGKHKHKHKHK / IV: KHKHKHKHKGKHKHKHKHK (amide I:20-IV:C, I:21-III:C, I:22-II:C) [HK4b, [K-H-K-H-K-H-K-H-K-G-K-H-K-H-K-H-K-H-K]4K3]	2/2	2/2	2/2	2/2	–	–	–
